The values below come from patent US20100248229A1, “INVITRO HUMAN EMBRYONIC MODEL AND A METHOD THEREOF” (Stempeutics Research Private Limited, priority 2007, published 2010).

The test system of one data set is EBs. Description: In vitro 3-D embryo implantation model: attachment and outgrowth of EBs. It is filed as cell-based, human. The source says:
An in vitro 3-dimensional (3-D) model/system for embryo implantation employing EBs in place of embryos was developed. The EBs collected on different days were subjected to implantation/attachment on the artificial substratum/surface.
To make this artificial surface regular tissue culture dishes or organ culture dishes were coated with about 1 to 2 mm thick coating of 0.5 to 1% low melting or high melting agarose in DPBS. A few wells of about 1 to 2 mm diameter are created using sterile paper disks, preferable in the center of the dish, which were removed after the agarose solidifies. Alternatively a horizontal tube like structure can be created by casting the gel over a fine glass capillary, which can be withdrawn as the agarose solidifies. This cavity/depression or tube like structure of agarose is then coated with matrix proteins like matrigel, collagen, fibronectin, laminin, gelatin etc. The coated agarose dishes were also layered with mouse or human endometrial stromal cells obtained from primary cultures or cell lines. The EBs were placed carefully in the cavity created or flushed inside the tube using a bent pasture pipette. The cells were cultured in normal standard EB media.
The EBs adhere and outgrows spreading out as a monolayer of cells on the extracellular matrix. Some cells invaded the surrounding agarose by day 10. A failure to implant/outgrow within ten days on this matrix after exposure to the drug/molecule indicates an abnormality. However, some drugs/could also support/enhance the process of attachment and outgrowth of the EBs. These molecules were screened for several other possible applications, though these may not necessarily be safe for embryonic development.
Four day old EBs were cultured on agarose and fibronectin coated surfaces. […] However, as Y27632 supports and enhances outgrowth, the effect of this drug on the expression profiles of the lineage markers and other genes needs to be screened for evaluating effect on normal development.
The model consists of a culture plate which is coated with Low melting (0.5%) agarose, A well of various depths is created in the agarose by various means eg: putting sterile filter paper disks while casting the gel and removing them latter. The gel is then coated with extracellular matrix components like fibronectin, collagen, laminin, etc. Human endometrial stromal fibroblast cell line CRL4003 is grown on this extracellular matrix as a monolayer. The spherical embryoid bodies or embryo like entities at day 4.5 are injected or pipetted into these cavities. The attachment is allowed in a culture media regularly used for hESC culture, without FGF2 supplementation (FIG. 1).
3. Lineage induction studies: The embryoid bodies after attachment to the implantation site differentiates to all lineages.
Method: Spherical Cytic EBs were collected on day 4.5 and exposed to the continuous presence of Y27632 (various doses were used). […] The control cytic EB had however just attached with smaller area of outgrowth showing that this dose of Y27632 can help in initial implantation of embryo during pregnancy.

For data set [1], the system named is hematopoietic precursor cells. To be noted: report [21]; cited from earlier work.
The test system of a further data set is HUES 9 EB. The data set is described as follows: Expression profiles of lineage, pluripotency, epigenetic and imprinted genes in day 4.5 spherical EBs (HUES 9). Type of data set: cell-based, human. Also noted: key: The sign ‘+’ indicates expression of the gene; the sign “−” indicates non-expression of the gene. To be noted: HUES 9 EB D4.5 LPS. Here is the method: RT-PCR: Total RNA from cells was isolated using TRIZOL-LS Reagent (Invitrogen) as per the manufacturer's protocol. Complementary DNA was synthesized using the SuperScript III First-Strand Synthesis System (Invitrogen) as per the manufacturer's instructions. Polymerase Chain Reaction (PCR) was carried out using 1U Tag DNA Polymerase (Sigma) and MgCl2 to a final concentration of 1.5 mM in a total volume of 25 μl/reaction. β-actin and GAPDH were used as the housekeeping controls. PCR cycles consisted of an initial denaturation at 95° C. for 5 minutes followed by 35 amplification cycles of denaturation at 94° C. for 45 seconds, annealing for 45 seconds, and extension at 72° C. for 45 seconds and final extension at 72° C. for 10 minutes.
Examples of changes in the expression profiles/patterns of lineage markers, pluripotency markers, epigenetic markers and imprinted genes, in day 4.5 spherical cavitating/cytic embryoid bodies upon exposure to compounds like lipopolysaccharide (LPS), Rho kinase inhibitor (Y27632), Azacytidine (Aza), and biologicals like an Uvomorulin antibody (UVO) are given in the table nos. 9-12 below. The sign ‘+’ indicates expression of the gene and the sign “−” indicates non-expression of the gene.

Consider lipopolysaccharide [LPS], for which the “attachment and outgrowth of EBs” value in the data set on EBs (four day old EBs on agarose and fibronectin coated surfaces, 15 pg/ml and above) is “completely inhibited”. Further, the “degeneration, attachment and outgrowth of EBs in implantation model” value with EBs (high dose, 48 hrs) was “degeneration of the EBs, and they failed to attach and outgrow”. Also, the “ability of attached EBs to give rise to all lineages” value in the data set on EBs (lineage induction studies, in presence of the compound) is listed as “compromised”. In data set [1], the “concentration enough to cause alterations in the proliferation of hematopoietic precursor cells in culture” value is 2 to 5 pg/mL. For the same substance, in the data set with HUES 9 EB (control +), the ABCG2 gene expression entry was “−”, the BMP4 gene expression result is recorded as “−”, the BRACHURY gene expression entry is on record as “−” and the CDH1 gene expression entry is reported as “−”. Also, in the data set on HUES 9 EB (control +), the Dlk1 gene expression result is recorded as “−”, the GATA2 gene expression entry is “−”, the HAND1 gene expression entry is given as “−” and the SDHD gene expression result is on record as “−”. Besides, in the data set with HUES 9 EB (control +), the cTNT gene expression entry is “−” and the hANP gene expression result was “−”. Moreover, in the data set with HUES 9 EB (control −), the DPYS gene expression entry is recorded as “+” and the HMGB1 gene expression result is “+”.
